From patent US5580775A, “High affinity, brain-specific nucleic acids encoding a L-proline transporter, and vectors, and host cells comprising the same” (Emory University, priority 1992, dated 1996)
Like-named read-outs stand apart in the source and are kept apart here. Peptide text beside a SMILES is read from it.

T1: rat brain L-proline transporter (Rattus norvegicus, UniProt P28573)
T1 sequence (P28573 1-637): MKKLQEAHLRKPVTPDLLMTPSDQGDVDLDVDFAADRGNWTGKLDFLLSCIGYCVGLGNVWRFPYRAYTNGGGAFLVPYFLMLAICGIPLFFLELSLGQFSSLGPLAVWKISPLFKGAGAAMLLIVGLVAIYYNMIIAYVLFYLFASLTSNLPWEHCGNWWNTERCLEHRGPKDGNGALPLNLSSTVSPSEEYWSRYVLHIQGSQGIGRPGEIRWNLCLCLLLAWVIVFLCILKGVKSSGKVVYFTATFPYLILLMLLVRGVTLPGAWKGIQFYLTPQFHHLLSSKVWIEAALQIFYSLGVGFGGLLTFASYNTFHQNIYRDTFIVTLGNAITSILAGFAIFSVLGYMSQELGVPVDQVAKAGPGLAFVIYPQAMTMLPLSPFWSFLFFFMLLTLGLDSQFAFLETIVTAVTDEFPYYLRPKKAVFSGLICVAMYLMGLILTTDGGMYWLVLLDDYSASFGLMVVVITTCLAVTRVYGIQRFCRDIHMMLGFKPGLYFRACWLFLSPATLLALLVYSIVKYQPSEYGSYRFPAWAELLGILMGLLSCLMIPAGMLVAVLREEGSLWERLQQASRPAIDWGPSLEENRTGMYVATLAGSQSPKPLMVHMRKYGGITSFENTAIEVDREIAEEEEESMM

T2: high affinity, Na^+ -dependent rat brain L-proline transporter (Rattus norvegicus, UniProt P28573)
T2 sequence (P28573 1-637): T1 sequence (P28573 1-637)

B1: high affinity, Na^+ -dependent rat brain L-proline transporter (Rattus norvegicus) (protein)
chain: T1 sequence (P28573 1-637)

Legend:
[1] = biological target: T1, rat brain L-proline transporter; assay: cell-based
[2] = biological target: T1, rat brain L-proline transporter; assay: Transport of L-[3H]glutamate or D-[3H]aspartate in HeLa fibroblasts expressing the transporter cDNA; format: cell-based; settings: transient expression in HeLa fibroblasts
[3] = biological target: T2, high affinity, Na^+ -dependent rat brain L-proline transporter; assay: L-proline uptake (saturation kinetics, Na+ dependence) in HeLa cells transfected with pPROT
[4] = system: rat brain synaptosomes; settings: cited from earlier work
[5] = system: HeLa cells
[6] = substrate: O=C(O)[C@@H]1CCCN1; assay: cells, lysate or membranes; settings: other: 20 min incubation, 50 nM L-[3H]proline plus unlabeled L-proline, HeLa cells transfected with pPROT
[7] = read-out: Ki values in excess of 100 μM (inhibition of proline uptake)
[8] = read-out: Ki (inhibition of proline uptake)
[9] = Ki (inhibition of proline uptake)

Row | Molecule | Ki [1, 7] | other results
1 | N[C@H](CC(=O)O)C(=O)O [D-Aspartic acid] | > 100 µM | transport induced by the transporter cDNA (in words) [2]: did not induce transport
2 | O=C1CC[C@@H](C(=O)O)N1 [L-Pyroglutamic acid] | > 100 µM | –
3 | CSCC[C@H](N)C(=O)O [L-Methionine] | > 100 µM | –
4 | NC(=O)C[C@H](N)C(=O)O [L-Asparagine] | > 100 µM | –
5 | N[C@@H](CCC(=O)O)C(=O)O [L-Glutamic acid] | > 100 µM | inhibition of L-proline uptake (in words) [1]: inability; transport induced by the transporter cDNA (in words) [2]: did not induce transport
6 | C[C@@H](O)[C@H](N)C(=O)O [L-Threonine] | > 100 µM | –
7 | N[C@H](C(=O)O)c1cc(=O)[nH]o1 [Ibotenic acid] | > 100 µM | –
8 | CC(C)C[C@H](N)C(=O)O [L-Leucine] | > 100 µM | –
9 | O=C(O)[C@@H]1CCCN1 [L-proline] | – | specific L-proline uptake upon isotonic substitution of NaCl with choline chloride ([3]; Na+ dependence, choline chloride): abolished; Km ([3]; read-out: apparent Michaelis constant (Km), 20 min incubation, 50 nM L-[3H]proline plus unlabeled L-proline, HeLa cells transfected with pPROT): ~9.7 µM; Km ([4]; read-out: Km, high affinity component, high affinity): 6 to 12 µM; Km ([4]; read-out: Km, low affinity component, low affinity): > 190 µM; endogenous L-proline transport as percent of pPROT-induced transport [5]: less than 10%; Km ([5]; read-out: Km of endogenous L-proline transport, plasmid vector-transfected HeLa cells): > 200 µM
10 | O=C(O)[C@@H]1CCN1 [L-Azetidine-2-carboxylic acid] | > 100 µM | Ki [1, 8]: 115 µM
11 | CC(=O)N1CCC[C@H]1C(=O)O [N-acetylproline] | > 100 µM | –
12 | O=C(O)[C@H]1CN[C@H](C(=O)O)C1 [L-Trans-2,4-PDC, trans-L-pyrrolidone-2,4-dicarboxylate] | > 100 µM | inhibition of L-proline uptake (in words) [1]: none of the excitatory amino acid analogs examined, including the specific L-glutamate uptake blocker, trans-L-pyrrolidone-2, 4-dicarboxylate (L-trans-2,4-PDC) (Bridges et al., 1991), significantly inhibited L-proline uptake
13 | O=C(O)[C@H]1CCCN[C@H]1C(=O)O (racemic) [(+/-)cis-2,3-piperidine dicarboxylic acid] | > 100 µM | –
14 | NCC(=O)O [Glycine] | > 100 µM | –
15 | NCCCC(=O)O [GABA, gammaaminobutyric acid] | > 100 µM | –
16 | NC1(C(=O)O)CC1 [1-Amino-1-cyclopropane carboxylic acid] | > 100 µM | –
17 | CCCC[C@@H](N)C(=O)O [D-Norleucine] | > 100 µM | –
18 | N[C@]1(C(=O)O)CC[C@H](C(=O)O)C1 (relative stereo) [Trans-ACPD, trans1-aminocyclopentane-1,3-dicarboxylic acid] | > 100 µM | –
19 | O=C(O)[C@@H]1CCCCN1 [L-Pipecolic acid] | – | Ki [1, 9]: 14 µM
20 | NC1CCN(O)C1=O (stereo not drawn) [HA-966, 3-Amino-1-hydroxy-2-pyrrolidone] | > 100 µM | –
21 | N[C@@H](CSSC[C@H](N)C(=O)O)C(=O)O [L-Cystine] | > 100 µM | –
22 | N[C@@H](Cc1c[nH]cn1)C(=O)O [L-Histidine] | – | Ki [1, 9]: 83 µM
23 | N[C@@H](CO)C(=O)O [L-Serine] | > 100 µM | –
24 | NC(=O)[C@@H]1CCCN1 [L-Prolinamide] | > 100 µM | –

Row | Molecule | Ki [1, 7] | other results
25 | N[C@@H](CC(=O)O)C(=O)O [L-Aspartic acid] | > 100 µM | inhibition of L-proline uptake (in words) [1]: inability
26 | CN[C@H](CC(=O)O)C(=O)O [N-methyl-D-aspartate] | > 100 µM | –
27 | O=C(O)C1C=CCN1 (stereo not drawn) [3,4-Dehydroproline] | – | Ki [1, 9]: 31 µM
28 | N[C@@H](Cn1oc(=O)[nH]c1=O)C(=O)O [Quisqualic acid] | > 100 µM | –
29 | N[C@@H](Cc1ccccc1)C(=O)O [L-Phenylalanine] | – | Ki [1, 9]: 48 µM
30 | COC(=O)[C@@H]1CCCN1 [L-Proline methyl ester] | > 100 µM | –
31 | CCCC[C@H](N)C(=O)O [L-Norleucine] | – | Ki [1, 9]: 37 µM
32 | CC[C@H](C)[C@H](N)C(=O)O [L-Isoleucine] | > 100 µM | –
33 | CC(C)[C@H](N)C(=O)O [L-Valine] | > 100 µM | –
34 | O=C(O)[C@H]1CCCN1 [D-Proline] | > 100 µM | Ki ([1]; Ki (inhibition of L-[3H]proline transport)): > 100 µM
35 | O=C(O)[C@@H]1C[C@@H](O)CN1 [Hydroxyproline] | > 100 µM | –
36 | NCC(=O)N1CCC[C@H]1C(=O)O [Glycylproline] (H-Gly-Pro-OH) | > 100 µM | –
37 | C[C@H](N)C(=O)O [L-Alanine] | > 100 µM | –
38 | O=C(O)c1ccc[nH]1 [Pyrrole-2-carboxylic acid] | > 100 µM | –
39 | N=C(N)NCCC[C@H](N)C(=O)O [L-Arginine] | > 100 µM | –
40 | N[C@@H](Cc1c[nH]c2ccccc12)C(=O)O [L-Tryptophan] | > 100 µM | –
41 | C=C(C)[C@H]1CN[C@H](C(=O)O)[C@H]1CC(=O)O [Kainic acid] | > 100 µM | –
42 | NCCCC[C@H](N)C(=O)O [L-Lysine] | > 100 µM | –
43 | N[C@@H](Cc1ccc(O)cc1)C(=O)O [L-Tyrosine] | – | Ki ([1]; Ki values in excess of 100 μM (inhibition of proline uptake)): > 100 µM
44 | CNCC(=O)O [Sarcosine] | – | Ki [1, 8]: 30 µM
45 | NC(=O)CC[C@H](N)C(=O)O [L-Glutamine] | > 100 µM | –
46 | O=C(O)CNC(=O)[C@@H]1CCCN1 [Prolylglycine] (H-Pro-Gly-OH) | > 100 µM | –
47 | N[C@@H](CS)C(=O)O [L-Cysteine] | – | Ki [1, 9]: 91 µM
48 | B1 | – | Km [6]: 9.7 µM
